This passage reports inhibition results from PMC10494966 (RSC Advances, 2023).

This experiment concerns the target T1, Pancreatic lipase (Sus scrofa, UniProt P00591).
T1 sequence (P00591 1-450): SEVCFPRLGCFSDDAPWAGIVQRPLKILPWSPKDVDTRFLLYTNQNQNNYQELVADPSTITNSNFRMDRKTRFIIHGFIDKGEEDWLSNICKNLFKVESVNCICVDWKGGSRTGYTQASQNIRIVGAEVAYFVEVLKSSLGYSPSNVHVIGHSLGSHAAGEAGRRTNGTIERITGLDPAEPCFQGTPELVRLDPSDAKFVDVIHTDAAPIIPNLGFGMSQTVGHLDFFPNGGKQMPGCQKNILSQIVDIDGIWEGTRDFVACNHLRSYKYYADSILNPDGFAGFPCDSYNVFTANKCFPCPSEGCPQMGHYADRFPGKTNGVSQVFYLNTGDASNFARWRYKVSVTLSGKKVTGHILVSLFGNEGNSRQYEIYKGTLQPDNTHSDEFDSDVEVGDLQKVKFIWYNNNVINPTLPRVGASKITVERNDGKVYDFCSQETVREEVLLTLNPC
Description: spectrophotometric p-nitrophenyl palmitate hydrolysis, single concentration […]. The format is biochemical.
For `COc1cc2cc(Oc3ccc4ccc(=O)oc4c3)c(=O)oc2cc1O` [compound 1, daphnoretin], the inhibition at 250 µM turned out to be 72%.
The compound `COC(=O)c1c(O)cc(O)c2c1OC(c1ccc(O)cc1)C(O)C2` (stereo not shown) [compound 2, 5,7,4′-trihydroxy-8-methoxycarbonyl flavanol] yielded an inhibition at 250 µM of 52%.
As for `O=C1c2c(O)cc(O)cc2O[C@H](c2ccc(O)cc2)[C@@H]1[C@@H]1C(=O)c2c(O)cc(O)cc2O[C@@H]1c1ccc(O)cc1` [compound 3, neochamaejasmin A], the figure is 61.8%; as for `C[C@@H]1O[C@@H](OC[C@H]2O[C@@H](Oc3c(-c4ccc(O)c(O)c4)oc4cc(O)cc(O)c4c3=O)[C@H](O[C@@H]3O[C@@H](C)[C@H](O)[C@@H](O)[C@H]3O)[C@@H](O)[C@H]2O)[C@H](O)[C@H](O)[C@H]1O` [compound 7, quercetin 3-O-α-L-rhamnopyranosyl-(1 → 2)-[α-L-rhamnopyranosyl-(1 → 6)]-β-D-galactopyranoside], 68%.
